Literature values as cited in patent US9006451B1, “2-anilinonicotinyl based chalcones useful as potential anticancer agents and process for preparation thereof” (Council of Scientific and Industrial Research, priority 2013, dated 2015).

Tested on: breast cancer cell line MCF7
Settings: cited from earlier work

For COc1ccc(C(=O)/C=C/c2c(OC)cccc2OC)c(OC)c1 [B, (E)-1-(2,4-dimethoxyphenyl)-3-(2,6-dimethoxyphenyl)prop-2-en-1-one], the IC50 (J. Med. Chem. 2008, 51, 2307-2310, read-out: IC50 against breast cancer cell line MCF7) is given as 75 µM and the GI50 (known chalcone, literature value) is given as 75 µM.
